Source: the METLIN SMRT retention time set (Domingo-Almenara et al. 2019)

Assay: gradient 5% acetonitrile 3 min, to 50% in 2 min, to 85% in 15 min, held 3 min, 100 µL/min
Conditions: column: Zorbax Extend-C18 2.1 x 50 mm; eluents: water / acetonitrile, 0.1% formic acid
In short: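 The mobile phases were water and acetonitrile, each with 0.1% formic acid, pumped at 100 μL/min through a Zorbax Extend-C18 column (2.1 × 50 mm, 1.8 μm). Pure standards were injected as mixtures of ~100 molecules and detected by a quadrupole time-of-flight mass spectrometer in positive and negative ionization mode. Retention time came from computationally picked adduct peaks, each inspected by hand.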

| Structure (SMILES) | RP-LC retention time [s] |
| --- | --- |
| COc1ccc(N2Cc3cccc(C(=O)O)c3C2=O)cc1 | 816 |
| C[C@]12CCC3[C@@H](CC[C@@H]4C[C@H](O)CC[C@]34C)[C@@H]1CCC2=O (some centres undefined) | 992 |
| O=C(CCc1ccccc1)NC1CCN(c2nnc3ccc(Cl)cn23)CC1 | 739 |
| COc1ccccc1CNC1=NCCNC12CCN(S(=O)(=O)c1ccccc1)CC2 | 692 |
| CCc1ccc(C(O)CN2CCN(c3ccccn3)CC2)cc1 (centres undefined) | 572 |
| CCc1ccc(-c2ccc(=O)n(CCc3nc(-c4ccc(F)cc4)no3)n2)cc1 | 1120 |
| CCn1ncc(NC(=O)c2ccccc2F)c(N2CCOCC2)c1=O | 842 |
| O=C(NCc1ccc(Cl)cc1)c1cc2sccc2n1Cc1ccc(F)cc1 | 1170 |
| COc1ccc(OC)c(NC(=O)Nc2cc(F)c3nc(N4CCOCC4)ccc3c2)c1 | 863 |
| CCOC(=O)c1c(S(=O)(=O)N2CCC(C(=O)NC3CC3)CC2)c(C)n(C)c1C | 672 |
| O=C(CN1C(=O)C2CCCCN2c2ccc(S(=O)(=O)N3CCCC3)cc21)N1CCCCCC1 (centres undefined) | 918 |
| CCCn1cc(C2=CCN(S(=O)(=O)c3cc(OC)ccc3OC)CC2)c2cccnc21 | 728 |
| Cc1cc(C)cc(C(=O)N2CCC3(CC2)NC(=O)c2ccc(F)cc2N3C)c1 | 787 |
| COc1ccc(-c2nc3cnccn3c2Nc2ccc(C(=O)NCCN3CCOCC3)cc2)cc1 | 584 |
| COC(=O)c1ccc(NC(=O)Cn2c3cc(Cl)ccc3c(=O)n2C(C)(C)C)cc1 | 1300 |
| CCCCn1c(CN2CCCC2)nc2cc(NC(=O)c3ccco3)ccc21 | 626 |
| COc1ccc(NC(=O)N2C[C@@H](F)C[C@H]2C(=O)N2CCCCC2)cc1OC | 643 |
| CCN1CCCC1CNC(=O)C1c2ccccc2C(=O)N(CCOC)C1c1cccs1 (centres undefined) | 556 |
| CC(C)n1nc(CNC(=O)c2ccco2)c2ccccc21 | 788 |
| CCCc1nnsc1C(=O)Nc1nnc(Cc2ccc(F)cc2)o1 | 890 |
| CC(C)Cn1c(=O)c(C(=O)NCc2cccc(C(F)(F)F)c2)nc2cccnc21 | 1030 |
| CC(C)C(=O)Nc1ccc(-n2cnc(C(=O)NC3CCCCCC3)c2)nc1 | 806 |
| CCOC(=O)c1ccccc1NC(=O)N1CCN(c2ccc(=O)n(-c3ccccc3)n2)CC1 | 995 |

| Structure (SMILES) | RP-LC retention time [s] |
| --- | --- |
| Cc1ccc(-c2noc(C3CC(=O)N(c4ccc5c(c4)OCO5)C3)n2)cc1 (centres undefined) | 955 |
| O=C(c1ccc(F)cc1Cl)N1CCN(c2cc(-c3ccc(F)cc3)[nH]n2)CC1 | 837 |
| Cc1oc2ccn(Cc3cccc(F)c3)c(=O)c2c1C(=O)NCC1CCCO1 (centres undefined) | 891 |
| COc1ccc(CN(C)Cc2cc(=O)n3ccc(C)cc3n2)cc1OC | 587 |
| CCOc1ccc2nc(C(=O)NC3CC3)cn2n1 | 697 |
| CCC(C(=O)NCCc1c(C)noc1C)n1c2ccccc2c2cnn(C)c(=O)c21 (centres undefined) | 739 |
| CCn1c(=O)c(C(=O)N2CCCC2)nc2ccccc21 | 665 |
| CCOC(=O)c1c(C)oc2nc(C)nc(NCCCN3CCN(c4ccccc4OC)CC3)c12 | 596 |
| CCNC(=O)c1cc2c(n(-c3ccc(C(C)C)cc3)c1=O)CCCC2=O | 905 |
| CC1CCc2nc3ncn(CC(=O)NCc4cccc(Br)c4)c(=O)c3cc2C1 (centres undefined) | 825 |
| O=C(C1CCN(S(=O)(=O)c2ccc(-c3noc(COc4ccccc4)n3)cc2)CC1)N1CCCC1 | 961 |
| COc1ccc(-n2c(=O)n(C)c(=O)c3cc(C(=O)NCc4ccccc4F)cnc32)cc1 | 849 |
| O=C(Nc1ccc(F)cc1)c1nnc(COCC(=O)N2CCN(c3ccccn3)CC2)s1 | 623 |
| O=C(NCc1ccc(F)cc1)C1CCN(S(=O)(=O)c2cc(-c3noc(C4CC4)n3)cs2)CC1 | 958 |
| Cc1nn(C(C)C(=O)NCCCN(C)Cc2ccccc2)c(=O)c2nn(-c3ccccc3)c(C)c12 (centres undefined) | 678 |
| O=C(Cn1cnc2ccccc21)N1CCN(C(=O)C2CC2c2cccs2)CC1 (centres undefined) | 592 |
| COc1cccc(-c2nc(Cc3nc(-c4ccccc4)oc3C)no2)c1 | 1100 |
| COc1ccc(NC(=O)N2CCC(c3cc(N)on3)CC2)cc1F | 663 |
| Cc1ccc(S(=O)(=O)N2CCCC(CCC(=O)O)C2)cc1 (centres undefined) | 812 |
| CC(=O)OCC(=O)[C@@]1(O)CCC2C3CCC4=CC(=O)CC[C@]4(C)C3=CC[C@@]21C (some centres undefined) | 776 |
| N#Cc1cccc(C(=O)N2CCCn3nc(-c4cccs4)cc3C2)c1 | 720 |
| CCN(CC)S(=O)(=O)c1ccc2c(c1)CC(C(=O)NCCC1=CCCCC1)N2C(C)=O (centres undefined) | 921 |
| O=C(C1=CN(c2cccc(Cl)c2)c2cc(F)ccc2S1(=O)=O)N1CCCC1 | 868 |

| Structure (SMILES) | RP-LC retention time [s] |
| --- | --- |
| Cc1ccc(NC(=O)N2CCCC(Cn3c(C4CC4)nc4cccnc43)C2)cc1 (centres undefined) | 685 |
| Cc1sc(-c2cc(C(F)(F)F)on2)cc1S(=O)(=O)N1CCN(c2ccccn2)CC1 | 891 |
| Cc1ccc(CNC(=O)CCC2CCN(c3cc(NC4CC4)ncn3)CC2)cc1 | 714 |
| CC(C)c1nnc(-c2ccc(=O)n(CC(=O)N3CCC4(CC3)OCCO4)c2)o1 | 609 |
| CN(C)C(=O)CN1C(=O)COc2ccc(C(=O)N3CCN(c4ccccc4)CC3)cc21 | 702 |
| CN1CCC(N2CCN(C(=O)CCC3CCCN(c4cc(NC5CC5)ncn4)C3)CC2)CC1 (centres undefined) | 534 |
| CC(C)CCNC(=O)CSc1nc(N2CCc3ccccc3C2)nc2ccccc12 | 917 |
| CCCCNC(=O)c1cnn(-c2cc(-c3nc(C)no3)ccn2)c1C | 853 |
| Cn1nc(C(=O)Nc2cccc3nsnc23)ccc1=O | 723 |
| Cc1ccc2c(c1)OCC(=O)N2Cc1nc(-c2ccc(Cl)c(F)c2)no1 | 1190 |
| CSc1ccc(CNC(=O)c2cc3ccncc3n2C)cc1 | 637 |
| CN(C)C(=O)c1ccc2c(c1)N(CC(=O)NCCCc1ccccc1)C(=O)CS2 | 726 |
| CC(C)N1CCN(C(=O)c2cn3ccnc(-c4ccccc4)c3n2)CC1 | 602 |
| CO[C@@H](C(=O)N1Cc2[nH]nc(NC(=O)c3ccc(N4CCN(C)CC4)cc3)c2C1)c1ccccc1 | 614 |
| O=C(Cc1ccsc1)N1CCC(n2c(-c3ccco3)nc3cccnc32)C1 (centres undefined) | 689 |
| CCC(=O)N1CCc2cc(C(=O)NC)ccc21 | 626 |
| Cc1nn(-c2ccc(Cl)cc2)c(C)c1S(=O)(=O)N1CCC(C(=O)N2CCCCC2)CC1 | 995 |
| COc1ccc(N2CC(c3noc(-c4ccc(F)c(F)c4)n3)CC2=O)cc1 (centres undefined) | 948 |
| Cc1ccc(-c2noc(CSc3nccn3-c3ccccc3)n2)cc1 | 938 |
| O=C(Nc1ccc(NC(=O)c2ccncc2)cc1)c1ccncc1 | 610 |
| Cc1ccc(Nc2c(-c3nc(C)no3)cnc3nc(C)ccc23)c(F)c1 | 793 |
| CCN1c2ccccc2C(=O)NC12CCN(C(=O)Nc1ccccc1OC)CC2 | 781 |
| Cc1nc(-c2ccccc2)sc1C(=O)N1CCC(C(C)C(=O)N2CCOCC2)CC1 (centres undefined) | 728 |

| Structure (SMILES) | RP-LC retention time [s] |
| --- | --- |
| O=C(Nc1ccc(Oc2ccc(NC(=O)Nc3ccc([N+](=O)[O-])cc3)cc2)cc1)Nc1ccc([N+](=O)[O-])cc1 | 1110 |
| COc1ccc(CNC(=O)N2CC=C(c3cn(C)c4ncccc34)CC2)cc1 | 752 |
| CCC(C)NC(=O)CN1c2ccc(F)cc2-c2ccccc2S1(=O)=O (centres undefined) | 870 |
| COc1ccccc1-c1nc2nccc(-c3cccnc3)n2n1 | 655 |
| CC(C)(C)C(=O)NCc1cccnc1-c1ccccc1 | 600 |
| CCc1cc(C(=O)Nc2ccc(C)cc2)nc2ccnn12 | 1060 |
| COCC(=O)Nc1nc(-c2ccc3c(c2)NC(=O)C(C)O3)c(C)s1 (centres undefined) | 720 |
| CCCNC(=O)N1CCCC(c2nn(C)c(=O)n2CC)C1 (centres undefined) | 602 |
| Cc1sc(-c2noc(C(C)C)n2)cc1S(=O)(=O)N1CCC(C(=O)Nc2cccc(C#N)c2)CC1 | 1090 |
| CCCNC(=O)CCc1nc2ccccc2n(CC(=O)Nc2ccc(C(C)C)cc2)c1=O | 891 |
| N#Cc1ccc(CN2C[C@@H](CO)[C@H](c3nc(C4CC4)no3)C2)cc1 | 600 |
| CC(C)NC(=O)CN1c2ccc(F)cc2-c2ccccc2S1(=O)=O | 831 |
| CCNC(=O)C1CCN(C(=O)Nc2ccc(NC(=O)Nc3ccc(C)cc3C)cc2)CC1 | 729 |
| COc1cccc(-c2nc3cnccn3c2NCCC(=O)NC2CCCC2)c1 | 675 |
| Cc1ccc2c(Nc3ccc(F)c(C)c3)c(-c3nc(C)no3)cnc2n1 | 764 |
| Cc1nc(-c2cn(C)c3ncccc23)sc1C(=O)NCc1ccc2c(c1)OCO2 | 826 |
| Cc1cc(C(=O)N2CC3CC(C2)c2cccc(=O)n2C3)c(C)o1 (centres undefined) | 590 |
| CCn1nc(CNC(=O)c2cncc(Br)c2)c2ccccc21 | 820 |
| Cc1ccn2cc(-c3ccc(NC(=O)c4ccc(Cl)cc4Cl)cc3)nc2n1 | 695 |
| COc1ccc(OC)c(CC2C(=O)Nc3c(C)cccc32)c1 (centres undefined) | 882 |
